From patent US5143938A, “Propanamines, their pharmacological properties and their application for therapeutic in particular antidiarrheal, purposes” (Jouveinal S.A., priority 1990, dated 1992) come the findings set out here.

A short description of data set [1]: Antidiarrheal activity in rats: inhibition of castor oil-induced diarrhea. Type of data set: in vivo. Here is the method: This test is performed by studying the activity of the test compounds with respect to the diarrheaphenomenon caused in animals by the administration of castor oil.
The method consists in administering the test product in solution orally, one hour before the administration, also oral, of 1.0 ml of castor oil per animal.
The animals are then observed, and the number of rats which emit liquid stools is determined on an all-or-nothing basis every hour during the seven hours following administration of the diarrheal agent.

Data set [2] in a line: Activity with respect to gastrointestinal transit in rats (semi-solid charcoal meal). Format: in vivo. The conditions noted are these: for effect on intestinal transit, in words / Activity with respect to intestinal transit, percentage change relative to the controls: 30 mg/kg oral; for Activity with respect to intestinal transit, percentage change relative to the controls: one hour before meal, positive = accelerated, negative = slowed down. As to the method:
The test is carried out according to the technique described by Green A. F., J. Pharmacol., 1959, 14, 26-34. It consists in determining in rats the distance travelled in the animal's intestine by a semi-solid meal after a specified time.
The test products are administered orally one hour before gavage of the animal with a semi-solid meal containing vegetable charcoal as a tracer. 15 minutes after the administration, the animal is sacrificed and the distance travelled in the intestine by the meal is expressed in relation to the total length.
This ratio, for the treated animals, is compared with that observed in control animals receiving only the meal.
In this test, the products of the invention were administered on the basis of 30 mg/kg and the results expressed as a percentage change relative to the controls, the ratio being positive when transit is accelerated and negative when it is slowed down; […]

For data set [3] the following is noted: mouse, in vivo.
A short description of another data set: in vivo. The following applies: mouse, po.
Where [4] appears, read: Rattus norvegicus, po, 3 h; read-out: ED 50 at 3 h., antidiarrheal activity.

`CCC(CCC1(c2cc(OC)cc(OC)c2)OCCO1)(NC)c1ccccc1` (stereo not drawn) [Example 3.c, 2-(3-N-methylamino-3-phenyl-pentan-1-yl)-2-(3,5-dimethoxyphenyl)-1,3-dioxolane]: the ED50 in data set [1] (setting [4]) was 16 mg/kg. For the same compound, in data set [2], the “effect on intestinal transit, in words” value is reported as “zero” and the “Activity with respect to intestinal transit, percentage change relative to the controls” value is reported as -3%.

Regarding `CCC(CCC1(c2cc(OC)c(OC)c(OC)c2)OCCO1)(NC)c1ccc(C(F)(F)F)cc1` (stereo not drawn) [Example 3.f, 2-[3-N-Methylamino-3-(4-trifluoromethylphenyl)-pentan-1-yl]-2-(3,4,5-trimethoxyphenyl)-1,3-dioxolane], in data set [1] (setting [4]), the ED50 is 6 mg/kg. Besides, in data set [2], the “Activity with respect to intestinal transit, percentage change relative to the controls” value is recorded as -17%.

In the case of `CCC(CCC(=O)c1cc(OC)c(OC)c(OC)c1)(c1ccc(Cl)cc1)N(C)C` (stereo not drawn) [Example 9.a, 4-(4-chlorophenyl)-4-N,N-dimethylamino-1-(3,4,5-trimethoxyphenyl)-hexan-1-one], the ED50 in data set [1] (setting [4]) amounted to 6 mg/kg. Further, the “Activity with respect to intestinal transit, percentage change relative to the controls” value in data set [2] is -15%.

`CCC(CCC(=O)c1cc(OC)c(OC)c(OC)c1)(c1ccc(C)cc1)N(C)C` (stereo not drawn) [Example 9.b.2, 4-N,N-dimethylamino-4-(4-methylphenyl)-1-(3,4,5-trimethoxyphenyl)-hexan-1-one]: in data set [1] (setting [4]), the ED50 worked out at 2 mg/kg. The “Activity with respect to intestinal transit, percentage change relative to the controls” value in data set [2] is on record as -14%.

With `CCC(CCC(=O)c1cc(OC)c(OC)c(OC)c1)(c1ccc(C(F)(F)F)cc1)N(C)C` (stereo not drawn) [Example 9.c, 4-N,N-dimethylamino-4-(4-trifluoromethvlphenvl)-1-(3,4,5-trimethoxyphenyl)-hexan-1-one], the ED50 in data set [1] (setting [4]) was determined as 15 mg/kg. Besides, in data set [2], the “effect on intestinal transit, in words” value is on record as “zero” and the “Activity with respect to intestinal transit, percentage change relative to the controls” value is “+2%”.

Consider `CCC(CCC(=O)c1ccc(Cl)c(Cl)c1)(c1ccccc1)N(C)C` (stereo not drawn) [Example 9.g, 1-(3,4-dichlorophenyl)-4-N,N-dimethylamino-4-phenyl-hexan-1-one], for which, in data set [1] (setting [4]), the ED50 was found to be 3 mg/kg. Moreover, the “Activity with respect to intestinal transit, percentage change relative to the controls” value in data set [2] was -25%.

For `C=CCN(C)C(CC)(CCC(=O)c1ccccc1)c1ccccc1` (stereo not drawn) [Example 10, N-allyl-1,4-diphenyl-4-N-methylamino-hexan-1-one], in data set [1] (setting [4]), the ED50 stood at 24.2 mg/kg. In data set [2], the “Activity with respect to intestinal transit, percentage change relative to the controls” value is -6%.

Regarding `CCC(CCC1(c2ccccc2)SCCS1)(c1ccccc1)N(C)C` (stereo not drawn) [Example 12, 2-(3-N,N-dimethylamino-3-phenyl-pentan-1-yl)-2-phenyl-1,3-dithiolane], the ED50 in data set [1] (setting [4]) came to 23.1 mg/kg. Moreover, the “Activity with respect to intestinal transit, percentage change relative to the controls” value in data set [2] is given as -12%.

In the case of `CN(C)C(=O)C(CCN1CCC(O)(c2ccc(Cl)cc2)CC1)(c1ccccc1)c1ccccc1` [Loperamide, 4-(4-chlorophenyl)-4-hydroxy-N,N-dimethyl-α,α-diphenyl-1-piperidinebutanamide, reference compound], in data set [3], the “toxicity at the administration doses, in words” value is “too toxic”. The compound also yielded a TD50 in the data set “in vivo” of 75 mg/kg. The ED50 came out at 0.2 mg/kg in data set [1] (Rattus norvegicus, po, 3 h, read-out: ED 50 at 3 h., antidiarrheal activity) and 1.79 mg/kg in data set [2] (Rattus norvegicus, po, read-out: ED50 slowing down transit by 50%).

`CN1CC[C@]23c4c5ccc(O)c4O[C@H]2[C@@H](O)C=C[C@H]3[C@H]1C5` [Morphine, reference compound]: the “ED 50 at 3 h., antidiarrheal activity” value in data set [1] (oral, one hour before 1.0 ml castor oil; inhibition of effect in 50% of animals at 3 h) was determined as 0.83 mg/kg. In addition, in data set [2] (oral, dose at which activity is -50%), the “ED50 slowing down transit by 50%” value is on record as 10 mg/kg.
